Results as given in patent US20260183281A1, “PHARMACEUTICAL COMPOSITION COMPRISING A PRMT5 INHIBITOR AND AN EGFR INHIBITOR” (APEIRON THERAPEUTICS (HONG KONG) LTD., priority 2024, published 2026).

What was measured:
[1] = system: NCI-H292 MTAP deleted cells; experiment: Cell growth inhibition (CellTiter-Glo, 144 h), single agents and combinations, CI by Calcusyn; type: cell-based; details: for IC20 / IC50: Homo sapiens, NCI-H292, single agent; for Max Inh %: single agent
Description: NCI-H292 MTAP deleted cell line was purchased from Nanjing Cobioer Biotechnology Co., Ltd. The cells were cultured in a cell culture medium containing 90% RPMI1640 and 10% fetal bovine serum at 37° C. and 5% CO2. Experiments could only be performed on cells in the logarithmic growth phase.
Adjust the cell density in complete medium and seed the cells into 96-well culture plates. Incubate the plates at 37° C. with 5% CO2. Add the two test compounds to the plates using a serial dilution scheme. Continue incubation at 37° C. and 5% CO2 for 144 h. Thaw the CellTiter-Glo (CTG) reagent and equilibrate the plates to room temperature for ˜30 min. Add an equal volume of CTG reagent to each well, shake on an orbital shaker for 5 min to lyse the cells, and allow the signal to stabilize at room temperature for 20 min. Measure luminescence on a plate reader and record the data. Data analysis:
Cell growth inhibition (%)=100−(Lum test drug−Lum culture medium control)/(Lum solvent control−Lum culture medium control)×100%
Calcusyn was used to analyze the combination index (CI) values.

[2] = system: human lung cancer PDX model LD1-0025-200729; experiment: In vivo pharmacodynamic study in PDX NU/NU mouse model of Osimertinib-resistant non-small cell lung cancer; parameters: species or system NU/NU mice; details: for Tumor volume (mm^3) Mean: each drug 10 mg/kg PO QD; for tumor growth inhibition (TGI) / statistical difference compared with the control group: each drug 10 mg/kg, PO, once daily; for tumor growth inhibition (TGI): 56-day study; for statistical difference compared with the control group: one-way ANOVA
From the text: NU/NU mice, female, 6-8 weeks old, weighing approximately 18-22 g. They were purchased from Beijing Vital River Laboratory Animal Technology Co., Ltd. All experimental mice were kept in the SPF-level animal room of Xi'an LIDE and acclimated for at least 3 days in advance. The lung cancer model tumor-bearing mice were chosen. When a tumor grew to 800-1000 mm^3, the tumor was taken out under sterile conditions and passed it subcutaneously into NU/NU mice. When the average tumor volume reached about 150 mm^3 (100-200 mm^3), 18 tumor-bearing mice were chosen and randomly divided into 6 groups according to the tumor volume. The day of grouping was Day 0, and they were administered according to the following solution:
N: Number of animals; dose volume: 10 μL/g; PO: per os. Administer Osimertinib or Osimertinib solvent first, and administer compound A or compound A solvent after an interval of 1 hour.
The main purpose was to detect the growth inhibition effect or complete cure ability of the test drug compound A as a single drug or in combination with Osimertinib on the human lung cancer PDX model LD1-0025-200729.
Tumor volume and weight measurement of tumor-bearing mice: A vernier caliper was used to measure twice a week. The calculation equation for tumor volume is V=0.5 a×b^2, where a and b represent the major and minor diameters of the tumor, respectively;
Tumor growth inhibition: TGI (%)=[1−(Ti−T0)/(Vi−V0)]×100
Ti is the mean tumor volume after the start of administration in the compound group, T0 is the mean tumor volume at the first dose in the compound group, V0 is the mean tumor volume at the first dose in the vehicle control group, and Vi is the mean tumor volume after the start of administration in the vehicle control group.

[3] = administration time 0 days (grouping)

| Compound | IC20 [1] [nM] | IC50 [1] [nM] | Max Inh % [1] [%] | Tumor volume (mm^3) Mean [2, 3] [mm^3] | Tumor volume (mm^3) Mean ([2]; administration time 4 days) [mm^3] | Tumor volume (mm^3) Mean ([2]; administration time 7 days) [mm^3] | Tumor volume (mm^3) Mean ([2]; administration time 11 days) [mm^3] | Tumor volume (mm^3) Mean ([2]; administration time 14 days) [mm^3] | Tumor volume (mm^3) Mean ([2]; administration time 18 days) [mm^3] | Tumor volume (mm^3) Mean ([2]; administration time 21 days) [mm^3] | Tumor volume (mm^3) Mean ([2]; administration time 25 days) [mm^3] | Tumor volume (mm^3) Mean ([2]; administration time 28 days) [mm^3] | Tumor volume (mm^3) Mean ([2]; administration time 32 days) [mm^3] | Tumor volume (mm^3) Mean ([2]; administration time 35 days) [mm^3] | Tumor volume (mm^3) Mean ([2]; administration time 39 days) [mm^3] | Tumor volume (mm^3) Mean ([2]; administration time 42 days) [mm^3] | Tumor volume (mm^3) Mean ([2]; administration time 46 days) [mm^3] | Tumor volume (mm^3) Mean ([2]; administration time 49 days) [mm^3] | Tumor volume (mm^3) Mean ([2]; administration time 53 days) [mm^3] | Tumor volume (mm^3) Mean ([2]; administration time 56 days) [mm^3] | further results |
| --- | --- | --- | --- | --- | --- | --- | --- | --- | --- | --- | --- | --- | --- | --- | --- | --- | --- | --- | --- | --- | --- |
| CN(C(=O)c1ccc2nc(N)c3cncn3c2c1)[C@@H]1COc2cc(C(F)(F)F)ccc21 [Compound A, (S)-4-amino-N-methyl-N-(6-(trifluoromethyl)-2,3-dihydrobenzofuran-3-yl)imidazo[1,5-a]quinoxaline-8-carboxamide] | 10.7 | 117 | 71.2 | 155.2 | 179.8 | 205.2 | 228.6 | 251.0 | 274.5 | 271.3 | 315.2 | 321.2 | 318.3 | 308.3 | 288.3 | 266.9 | 278.7 | 281.0 | 283.7 | 287.7 | TGI (%) ([1]; Compound A 3.20 nM, Osimertinib 0 nM): 11.4%; TGI (%) ([1]; Compound A 16.0 nM, Osimertinib 0 nM): 10.8%; TGI (%) ([1]; Compound A 80.0 nM, Osimertinib 0 nM): 45.6%; TGI (%) ([1]; Compound A 400 nM, Osimertinib 0 nM): 51.8%; TGI (%) ([1]; Compound A 2000 nM, Osimertinib 0 nM): 66.6%; TGI (%) ([1]; Compound A 10000 nM, Osimertinib 0 nM): 75.1%; Tumor volume (mm^3) Mean ([2]; administration time 57 days): 288.1 mm^3; tumor growth inhibition (TGI) [2]: 85.8%; statistical difference compared with the control group [2]: statistically significant difference |
| C[C@H](c1ccc(C(F)(F)F)cn1)N(C(=O)c1cc2c(cc1F)nc(N)c1cncn12)C1CC1 [Compound C] | 9.6 | 49.9 | 64.6 | – | – | – | – | – | – | – | – | – | – | – | – | – | – | – | – | – | TGI (%) ([1]; Compound C 3.20 nM, Osimertinib 0.0 nM): 4.0%; TGI (%) ([1]; Compound C 16.0 nM, Osimertinib 0.0 nM): 23.7%; TGI (%) ([1]; Compound C 80.0 nM, Osimertinib 0.0 nM): 38.2%; TGI (%) ([1]; Compound C 400 nM, Osimertinib 0.0 nM): 49.5%; TGI (%) ([1]; Compound C 2000 nM, Osimertinib 0.0 nM): 61.0%; TGI (%) ([1]; Compound C 10000 nM, Osimertinib 0.0 nM): 60.4% |
| C=CC(=O)Nc1cc(Nc2nccc(-c3cn(C)c4ccccc34)n2)c(OC)cc1N(C)CCN(C)C [Osimertinib, reference compound] | 18.6 | 50.2 | 91.1 | 155.7 | 185.9 | 208.3 | 232.2 | 253.6 | 288.4 | 310.4 | 369.2 | 407.1 | 439.2 | 470.2 | 501.3 | 534.5 | 589.4 | 605.3 | 633.7 | 679.4 | TGI (%) ([1]; Osimertinib 4 nM, Compound A 0 nM): 16.0%; TGI (%) ([1]; Osimertinib 4.1 nM, Compound C 0 nM): 20.5%; TGI (%) ([1]; Osimertinib 12 nM, Compound A 0 nM): 13.4%; TGI (%) ([1]; Osimertinib 12.3 nM, Compound C 0 nM): 18.8%; TGI (%) ([1]; Osimertinib 37 nM, Compound A 0 nM): 35.4%; TGI (%) ([1]; Osimertinib 37.0 nM, Compound C 0 nM): 34.3%; TGI (%) ([1]; Osimertinib 111 nM, Compound A 0 nM): 70.6%; TGI (%) ([1]; Osimertinib 111.1 nM, Compound C 0 nM): 68.4%; TGI (%) ([1]; Osimertinib 333 nM, Compound A 0 nM): 81.8%; TGI (%) ([1]; Osimertinib 333.3 nM, Compound C 0 nM): 81.4%; TGI (%) ([1]; Osimertinib 1000 nM, Compound A 0 nM): 90.9%; TGI (%) ([1]; Osimertinib 1000.0 nM, Compound C 0 nM): 92.3%; Tumor volume (mm^3) Mean ([2]; administration time 57 days): 689.6 mm^3; tumor growth inhibition (TGI) [2]: 43.1%; statistical difference compared with the control group [2]: no statistically significant difference |
